Drawing on patent publication US11261175B2 (priority 2017, dated 2022), this text covers EC50 for ten compounds.

The structures appear in SMILES notation.

Common to all, as to assay type: cell-based
The subject of assay [1] is HCV replicon NK5.1-Gluc (genotype 1b). Nature of the assay: Anti-HCV activity using HCV replicon NK5.1-Gluc (genotype 1b) in Huh 7.5.1 cells, luciferase readout. The following applies: Hepatitis C virus, 72 h; Huh 7.5.1 cells with NK5.1-Gluc replicon, 3 days, Gaussia luciferase; read-out: HCV wt. GT-1b. (In antiviral work, replicon cells carry a viral genome segment that copies itself.)

Assay [2] concerns HCV replicon S52-Feo (genotype 3a). Nature of the assay: Anti-HCV activity using HCV replicon S52-Feo (genotype 3a) in Huh 7.5.1 cells, luciferase readout. The note with it: Hepatitis C virus, 72 h; Huh 7.5.1 cells with S52-Feo replicon, 3 days, firefly luciferase; read-out: HCV wt. GT-3a.
In assay [3] the test system is HCV genotype 1b replicon with NS5A Y93H mutation. Kind of assay: Transiently transfected assay of genotype 1b resistance mutant RNA Y93H. The note with it: Hepatitis C virus, Huh-7.5.1, 72 h, read-out: HCV Mutation Y93H. An excerpt:
(§1) <Experimental Example 3> Transiently Transfected Assay of Genotype 1b Resistance Mutant RNAs
(§2) Replicon genomes substituted with Y93H, L31V and L31V+Y93H (double mutant), the resistance mutants to Daclatasvir with mutations at the NS5A protein domain 1.
(§3) These HCV resistance mutant genomes were linearized with scal restriction enzyme, and then the mutated HCV RNA was synthesized through in vitro transcription. Huh 7.5.1 cells were individually electroporated with HCV RNA with resistant mutations and plated in a 12 well plate. After 4 hours, Huh7.5.1 cells were seeded in DMEM containing the compounds of examples serially diluted for 3 days. Three days later, the cells were harvested and the intracellular luciferase activity was measured. The luciferase activity was normalized with those obtained from the negative control cells (mock-treated cells).

Assay [4] has as its system HCV genotype 1b replicon with NS5A L31V mutation. Nature of the assay: Transiently transfected assay of genotype 1b resistance mutant RNA L31V. The note with it: Hepatitis C virus, Huh-7.5.1, 72 h, read-out: HCV Mutation L31V.
Excerpt: as §1, §2, §3

Assay [5] concerns HCV genotype 1b replicon with NS5A L31V+Y93H (double mutant). Nature of the assay: Transiently transfected assay of genotype 1b resistance mutant RNA L31V+Y93H (double mutant). The note with it: Hepatitis C virus, Huh-7.5.1, 72 h, read-out: HCV Mutation L31V + Y93H.
Excerpt: as §1, §2, §3

Assay [6] concerns JFH5a-Rluc-ad34 virus (HCV GT-2a). Nature of the assay: Anti-HCV activity using HCVcc (JFH5a-Rluc-ad34 virus) in Huh 7.5.1 cells, Renilla luciferase readout. The note with it: Hepatitis C virus, GT2A, Huh-7.5.1, 72 h, read-out: HCV wt. GT-2a. As to the method: <Experimental Example 1> Measurement of Anti-HCV Activity of Compounds of Examples Using HCVcc
Step 1: Cell Line and Cell Culture
Huh 7.5.1 cells were grown in Dulbecco's Modified Eagle's medium (DMEM; Gibco) supplemented with antibiotics (100 U/mL penicillin, 10 μg/mL streptomycin) and 10% heat-inactivated fetal bovine serum (ΔFBS; PEAK) in a CO2 incubator at 37° C. with […].
Huh7.5.1 cells were transfected with in vitro transcription RNA of JFH5a-Rluc-ad34, a derivative of JFH1 with adaptive mutations in E2 and p7 regions, by electroporation. JFH5a-Rluc-ad34 virus contains Renilla luciferase (Rluc), which is convenient for virus proliferation assay. The cell culture medium containing HCV was collected 3-5 days after the electroporation and then filtered through a […] pore size filter.
Step 3: Antiviral Activity Test Using Infectious HCV Particles
Huh 7.5.1 cells were inoculated with JFH5a-Rluc-ad34 virus and incubated for 4 hours. Four hours after the virus inoculation, the Huh7.5.1 cells infected with HCV were cultured in the medium containing the compound of examples serially diluted. Three days later, the cells were harvested and the intracellular luciferase activity was measured using Renilla luciferase assay system (Promega). Finally, the luciferase activity was normalized with those obtained from the negative control cells (mock-treated cells).

Take `CCCCC1(CCCC)c2cc(NC(=O)[C@@H]3C[C@H](COC)CN3C(=O)[C@H](NC(=O)OC)c3ccccc3)ccc2-c2ccc(-c3cnc([C@@H]4CCCN4C(=O)[C@@H](NC(=O)OC)C(C)C)[nH]3)cc21` [Example 42, methyl ((S)-1-((S)-2-(5-(9,9-dibutyl-7-((2S,4S)-1-((R)-2-((methoxycarbonyl)amino)-2-phenylacetyl)-4-(methoxymethyl)pyrrolidine-2-carboxyamido)-9H-fluorene-2-yl)-1H-imidazole-2-yl)pyrrolidine-1-yl)-3-methyl-1-oxobutane-2-yl)carbamate]: the EC50 in assay [1] was 0.01 to 0.1 nM; in assay [2], 0.1 to 1 nM; in assay [3], 0.01 to 0.1 nM; in assay [4] it was 0.001 to 0.01 nM; in assay [5] it was 1 to 100 nM; in assay [6], 0.1 to 1 nM.
For the compound `CCCCC1(CCCC)c2cc(NC(=O)[C@@H]3C[C@H](O)CN3C(=O)[C@H](NC(=O)OC)c3ccccc3)ccc2-c2ccc(NC(=O)[C@@H]3C[C@H](O)CN3C(=O)[C@H](NC(=O)OC)c3ccccc3)cc21` [Example 35, dimethyl (1R,1′R)-2,2′-((3S,3′S,5S,5′S)-5,5′-(9,9-dibutyl-9H-fluorene-2,7-diyl)bis(azanediyl)bis(oxomethylene)bis(3-hydroxypyrrolidine-5,1-diyl))bis(2-oxo-1-phenylethane-2,1-diyl)dicarbamate], the EC50 in assay [1] was in the range of 0.01 to 0.1 nM; in assay [2] it was 0.01 to 0.1 nM; in assay [3], 0.1 to 1 nM; in assay [4], 0.001 to 0.01 nM; in assay [5], 1 to 100 nM; in assay [6] it was 1 to 100 nM.
In the case of `CCCCC1(CCCC)c2cc(NC(=O)[C@@H]3CC(=O)CN3C(=O)[C@H](NC(=O)OC)c3ccccc3)ccc2-c2ccc(NC(=O)[C@@H]3CC(=O)CN3C(=O)[C@H](NC(=O)OC)c3ccccc3)cc21` [Example 6, dimethyl ((1R,1′R)-((5S,5′S)-(((9,9-dibutyl-9H-fluorene-2,7-diyl)bis(azanediyl))bis(carbonyl))bis(3-oxopyrrolidine-5,1-diyl))bis(2-oxo-1-phenylethane-2,1-diyl))dicarbamate], the EC50 in assay [1] was in the range of 0.01 to 0.1 nM; in assay [2], 0.01 to 0.1 nM; in assay [3] it was 0.1 to 1 nM; in assay [4], 0.001 to 0.01 nM; in assay [5] it was 1 to 100 nM; in assay [6], 0.1 to 1 nM.
On to `CCCCC1(CCCC)c2cc(NC(=O)[C@@H]3C[C@H](COC)CN3C(=O)[C@H](NC(=O)OC)c3ccccc3)ccc2-c2ccc(NC(=O)[C@@H]3C[C@H](COC)CN3C(=O)[C@H](NC(=O)OC)c3ccccc3)cc21` [Example 36, dimethyl (1R,1′R)-2,2′-((3S,3′S,5S,5′S)-5,5′-(9,9-dibutyl-9H-fluorene-2,7-diyl)bis(azanediyl)bis(oxomethylene)bis(3-(methoxymethyl)pyrrolidine-5,1-diyl))bis(2-oxo-1-phenylethane-2,1-diyl)dicarbamate], for which the EC50 in assay [1] is 0.001 to 0.01 nM; in assay [2] it was 0.01 to 0.1 nM; in assay [3], 0.001 to 0.01 nM; in assay [4], 0.001 to 0.01 nM; in assay [5], 0.1 to 1 nM; in assay [6], 0.1 to 1 nM.
Turning to `CCCCCC1(CCCCC)c2cc(NC(=O)[C@@H]3CC(=O)CN3C(=O)[C@H](NC(=O)OC)c3ccccc3)ccc2-c2ccc(NC(=O)[C@@H]3CC4(CN3C(=O)[C@H](NC(=O)OC)c3ccccc3)OCCO4)cc21` [Example 18, methyl ((R)-2-((S)-8-((7-((S)-1-((R)-2-((methoxycarbonyl)amino)-2-phenylacetyl)-4-oxopyrrolidine-2-carboxyamido)-9,9-dipentyl-9H-fluorene-2-yl)carbamoyl)-1,4-dioxa-7-azaspiro[4.4]nonane-7-yl)-2-oxo-1-phenylethyl)carbamate], the EC50 in assay [1] lay in the range of 0.01 to 0.1 nM; in assay [2], 0.1 to 1 nM; in assay [3], 0.1 to 1 nM; in assay [4], 0.01 to 0.1 nM; in assay [5] it was 1 to 100 nM; in assay [6], 1 to 100 nM.
As to `CCCCC1(CCCC)c2cc(NC(=O)[C@@H]3C[C@@H](OC(=O)C(C)C)CN3C(=O)[C@H](NC(=O)OC)c3ccccc3)ccc2-c2ccc(NC(=O)[C@@H]3C[C@@H](OC(=O)C(C)C)CN3C(=O)[C@H](NC(=O)OC)c3ccccc3)cc21` [Example 32, (3R,3′R,5S,5′S,52R)-5,5′-(9,9-dibutyl-9H-fluorene-2,7-diyl)bis(azanediyl)bis(oxomethylene)bis(1-((R)-2-(methoxycarbonylamino)-2-phenylacetyl)pyrrolidine-5,3-diyl) bis(2-methylpropanoate)], the EC50 in assay [1] was in the range of 0.001 to 0.01 nM; in assay [2] it was 0.01 to 0.1 nM; in assay [3] it was 0.01 to 0.1 nM; in assay [4], 0.01 to 0.1 nM; in assay [5] it was 0.01 to 0.1 nM; in assay [6] it was 0.1 to 1 nM.
In the case of `COC(=O)N[C@H](C(=O)N1CCC[C@@H]1C(=O)Nc1ccc2c(c1)C(CCCCC(F)(F)F)(CCCCC(F)(F)F)c1cc(NC(=O)[C@@H]3CCCN3C(=O)[C@H](NC(=O)OC)c3ccccc3)ccc1-2)c1ccccc1` [Example 5, methyl ((R)-2-((S)-2-((7-((R)-1-((S)-2-((methoxycarbonyl)amino)-2-phenylacetyl)pyrrolidine-2-carboxyamido)-9,9-bis(5,5,5-trifluoropentyl)-9H-fluorene-2-yl)carbamoyl)pyrrolidine-1-yl)-2-oxo-1-phenylethyl)carbamate], the EC50 is 0.001 to 0.01 nM in assay [1]; 0.01 to 0.1 nM in assay [2]; over 100 nM in assay [3]; 0.1 to 1 nM in assay [4]; over 100 nM in assay [5]; 1 to 100 nM in assay [6].
With `CCCCC1(CCCC)c2cc(NC(=O)[C@@H]3CC4(CC4)CN3C(=O)[C@H](NC(=O)OC)c3ccccc3)ccc2-c2ccc(-c3cnc([C@@H]4CCCN4C(=O)[C@@H](NC(=O)OC)C(C)C)[nH]3)cc21` [Example 26, methyl ((S)-1-((S)-2-(5-(9,9-dibutyl-7-((S)-5-((R)-2-((methoxycarbonyl)amino)-2-phenylacetyl)-5-azaspiro[2.4]heptane-6-carboxyamido)-9H-fluorene-2-yl)-1H-imidazole-2-yl)pyrrolidine-1-yl)-3-methyl-1-oxobutane-2-yl)carbamate], the EC50 in assay [1] was 0.001 to 0.01 nM; in assay [2], 0.01 to 0.1 nM; in assay [3] it was 0.1 to 1 nM; in assay [4], 0.01 to 0.1 nM; in assay [5], over 100 nM; in assay [6], 0.01 to 0.1 nM.
Regarding `CCCCC1(CCCC)c2cc(NC(=O)[C@@H]3CC(=O)CN3C(=O)[C@H](NC(=O)OC)c3ccccc3)ccc2-c2ccc(NC(=O)[C@@H]3CC4(CN3C(=O)[C@H](NC(=O)OC)c3ccccc3)OCCO4)cc21` [Example 7, methyl ((R)-2-((S)-8-((9,9-dibutyl-7-((S)-1-((R)-2-((methoxycarbonyl)amino)-2-phenylacetyl)-4-oxopyrrolidine-2-carboxyamido)-9H-fluorene-2-yl)carbamoyl)-1,4-dioxa-7-azaspiro[4.4]nonane-7-yl)-2-oxo-1-phenylethyl)carbamate], the EC50 fell in the range of 0.01 to 0.1 nM in assay [1]; 0.01 to 0.1 nM in assay [2]; 0.01 to 0.1 nM in assay [3]; 0.001 to 0.01 nM in assay [4]; 0.1 to 1 nM in assay [5]; 1 to 100 nM in assay [6].
Turning to `CCCCC1(CCCC)c2cc(NC(=O)[C@@H]3CCCN3C(=O)[C@H](NC(=O)OC)c3ccccc3)ccc2-c2ccc(NC(=O)[C@@H]3CCCN3C(=O)[C@H](NC(=O)OC)c3ccccc3)cc21` [Example 2, dimethyl ((1R,1′R)-((2S,2′S)-(((9,9-dibutyl-9H-fluorene-2,7-diyl)bis(azanediyl))bis(carbonyl))bis(pyrrolidine-2,1-diyl))bis(2-oxo-1-phenylethane-2,1-diyl))dicarbamate], the EC50 in assay [1] was 0.001 to 0.01 nM; in assay [2] it was 0.01 to 0.1 nM; in assay [3], 0.1 to 1 nM; in assay [4], 0.001 to 0.01 nM; in assay [5] it was 1 to 100 nM; in assay [6] it was 1 to 100 nM.
